Here are results for 12 compounds from PubChem BioAssay (NCI).

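Dose response: 5 concentrations. Exposure: 48 h. Format: 96-well plates. Endpoint: linear interpolation; highest concentration if not reached. GI50 is the concentration that inhibits growth by half. TGI denotes the concentration required for complete inhibition of growth.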

Some test systems named below: A498 renal; M14 melanoma; MOLT-4 leukemia; NCI-H23 lung; SK-MEL-2 melanoma; SK-MEL-5 melanoma; SNB-19 CNS; SR leukemia; UACC-257 melanoma; UACC-62 melanoma.
Assay in all cases: inhibition of tumour cell growth, NCI panel, 48 h

For `COc1ccc(C2CC(c3cccc(Nc4ccncc4)c3)=NN2c2ccc(Cl)cc2)cc1` (stereo not given), the GI50 in the assay with A498 renal was 1.52 µM; in the assay with M14 melanoma, 1.61 µM; in the assay on MOLT-4 leukemia it was 1.81 µM; in the assay on NCI-H23 lung, 1.81 µM; with SK-MEL-2 melanoma, 2.07 µM; in the assay on SK-MEL-5 melanoma, 1.77 µM. The GI50 is 1660 nM in the assay on SNB-19 CNS, 1350 nM with SR leukemia, 1.95 µM in the assay on UACC-257 melanoma and 1.73 µM in the assay on UACC-62 melanoma. In addition, the TGI is 8.16 µM in the assay on A498 renal; 3.24 µM in the assay on M14 melanoma; 4.1 µM with MOLT-4 leukemia; 3.43 µM with NCI-H23 lung; 4.28 µM with SK-MEL-2 melanoma; 3.18 µM in the assay on SK-MEL-5 melanoma. Moreover, the TGI with SNB-19 CNS amounted to 3.23 µM; in the assay on SR leukemia, 3.38 µM; with UACC-257 melanoma, 3.87 µM; in the assay on UACC-62 melanoma it was 3.22 µM.
With `O=Cc1cc([N+](=O)[O-])no1`, the TGI in the assay with A498 renal was above 100 µM; in the assay with M14 melanoma, 35.6 µM; in the assay with MOLT-4 leukemia it was 81.5 µM; in the assay on NCI-H23 lung, above 100 µM; in the assay with SK-MEL-2 melanoma, 57.4 µM; in the assay on SK-MEL-5 melanoma, 36.6 µM. The TGI in the assay on SNB-19 CNS is above 100 µM; with SR leukemia it was above 100 µM; with UACC-257 melanoma, 90.7 µM; in the assay on UACC-62 melanoma, 46.3 µM.
Consider `CS(=O)(=O)OC1CN2CCC1CC2` (stereo not given), for which the TGI with A498 renal, in the assay with M14 melanoma, in the assay on MOLT-4 leukemia, in the assay on NCI-H23 lung, in the assay with SK-MEL-2 melanoma and in the assay with SK-MEL-5 melanoma was above 100 µM each time. Also, the TGI with SNB-19 CNS, with SR leukemia, in the assay on UACC-257 melanoma and in the assay on UACC-62 melanoma was above 100 µM in each case.
As for `Cc1cccc2cc3c(ccc4ccccc43)c[n+]12`, the TGI with MOLT-4 leukemia was above 100 µM; with NCI-H23 lung, 58 µM; in the assay with SK-MEL-2 melanoma it was 48.3 µM; in the assay on SK-MEL-5 melanoma it was 22.1 µM; with SNB-19 CNS, 50.9 µM; in the assay with SR leukemia, above 100 µM. Besides, the TGI in the assay with UACC-257 melanoma is 37.9 µM; in the assay with UACC-62 melanoma, 63.1 µM.
For the compound `CCN1C=C/C(=C\C=C/c2cc[n+](CC)c3ccccc23)c2ccccc21`, the TGI in the assay on A498 renal turned out to be 8.78 µM; in the assay with M14 melanoma, 16.9 µM; in the assay with MOLT-4 leukemia it was 19.7 µM; in the assay on NCI-H23 lung, 11.7 µM; in the assay on SK-MEL-2 melanoma, 21.2 µM; with SK-MEL-5 melanoma, 21.2 µM. Also, the TGI in the assay on SNB-19 CNS came to 15.2 µM; in the assay on SR leukemia, 9.65 µM; in the assay on UACC-257 melanoma it was 9.76 µM; in the assay on UACC-62 melanoma, 23.8 µM.
Take `CN(c1cc2ncc(=O)[nH]c2cc1NC(N)=NCc1ccc(Cl)cc1)C1CCCCC1`: the GI50 with A498 renal was 8.04 µM; with M14 melanoma it was 7.36 µM; with MOLT-4 leukemia, 6.59 µM; in the assay with NCI-H23 lung it was 8.25 µM; in the assay with SK-MEL-2 melanoma, 8.83 µM; in the assay on SK-MEL-5 melanoma, 8.18 µM. The GI50 with SR leukemia was 1490 nM; in the assay on UACC-257 melanoma, 9.77 µM; in the assay with UACC-62 melanoma it was 6.8 µM. For the same compound, the TGI in the assay with A498 renal was found to be 15.4 µM; in the assay with M14 melanoma, 14.9 µM; in the assay on MOLT-4 leukemia, 14.6 µM; in the assay with NCI-H23 lung, 15.9 µM; with SK-MEL-2 melanoma, 18.3 µM; with SK-MEL-5 melanoma, 15.3 µM. For the same compound, the TGI in the assay on SR leukemia was 5.23 µM; in the assay on UACC-257 melanoma, 19.2 µM; in the assay with UACC-62 melanoma, 14 µM.
For the compound `Nc1cc2c(nnn2C2OC(COCc3ccccc3)C(OCc3ccccc3)C2OCc2ccccc2)c(=O)[nH]1` (stereo not given), the TGI was above 100 µM in the assay with A498 renal; 64.4 µM with M14 melanoma; 38.9 µM with MOLT-4 leukemia; above 100 µM with NCI-H23 lung; 28.3 µM in the assay on SK-MEL-2 melanoma; 19.9 µM in the assay with SK-MEL-5 melanoma. Also, the TGI with SNB-19 CNS was above 100 µM; with SR leukemia, 35.6 µM; in the assay with UACC-257 melanoma, 58.6 µM; in the assay with UACC-62 melanoma, 38.1 µM.
In the case of `CCCCCCNC(=O)c1cc(CCc2cc(O)ccc2O)ccc1O`, the TGI in the assay on A498 renal is 15.4 µM; with M14 melanoma, 18.4 µM; with MOLT-4 leukemia it was above 24.5 µM; in the assay with NCI-H23 lung it was 28.5 µM; with SK-MEL-2 melanoma it was 7.4 µM; in the assay on SK-MEL-5 melanoma, 15.6 µM. Moreover, the TGI with SNB-19 CNS was above 50.6 µM; in the assay with SR leukemia, above 29 µM; in the assay with UACC-257 melanoma, 6.26 µM; with UACC-62 melanoma, 10.1 µM. Further, the GI50 in the assay on UACC-62 melanoma is 3.26 µM.
Consider `O=S1(=O)C(c2ccccc2)C(N2CCCCC2)C1C1CC2c3ccccc3C1c1ccccc12` (stereo not given), for which the TGI with A498 renal, with M14 melanoma, in the assay with MOLT-4 leukemia, with NCI-H23 lung, with SK-MEL-2 melanoma and with SK-MEL-5 melanoma was above 100 µM throughout. Further, the TGI in the assay with SNB-19 CNS, in the assay with SR leukemia, with UACC-257 melanoma and with UACC-62 melanoma was above 100 µM each time.
Regarding `CO/C=C(/C(=O)OC)c1ccccc1[C@@H]1CC1c1cccc(F)c1` (stereo not given in full), the TGI was 95.9 µM in the assay with A498 renal; 81.6 µM in the assay with M14 melanoma; above 100 µM with MOLT-4 leukemia; above 100 µM with NCI-H23 lung; 37.4 µM with SK-MEL-2 melanoma; 24.8 µM in the assay on SK-MEL-5 melanoma. The TGI with SNB-19 CNS was above 100 µM; with SR leukemia, above 100 µM; in the assay on UACC-257 melanoma, 52.4 µM; in the assay with UACC-62 melanoma, 50.2 µM.
With `CCOC(=O)C[C@@H]1C2(C=C[C@@]13CO3)OCC(C)(C)CO2`, the TGI with A498 renal, with M14 melanoma, with MOLT-4 leukemia, in the assay with NCI-H23 lung, with SK-MEL-2 melanoma and in the assay with SK-MEL-5 melanoma was above 100 µM in each case. In addition, the TGI in the assay on SR leukemia, in the assay on UACC-257 melanoma and in the assay on UACC-62 melanoma was above 100 µM throughout.
With `Cc1ccc(NP(=O)(Oc2ccccc2)N(CCCl)CCCl)cc1` (stereo not given), the TGI in the assay on A498 renal, in the assay with M14 melanoma, in the assay on MOLT-4 leukemia, with NCI-H23 lung, in the assay with SK-MEL-2 melanoma and in the assay on SK-MEL-5 melanoma was above 100 µM in each case. The TGI with SR leukemia, in the assay with UACC-257 melanoma and with UACC-62 melanoma was above 100 µM throughout.
